Laboratory results: US6693166B1, “Cdk5—specific inhibitory peptides” (Hong Kong University of Science and Technology, priority 1999, dated 2004)
Where a SMILES comes first, the peptide text is derived from it. Where no end group is shown, it is not given here.

Tests used:
[1] = molecular target: T1, GST-Cdk2-cyclin A-H6 complex (Homo sapiens, UniProt P24941); experiment: Peptide/Cdk binding assay: GSH-bead co-precipitation and Western blot of cyclin A; conditions: various amounts of peptide (0.5, 2, 10 μM; 1000-fold excess)
T1 construct: made in house; host or cells: E. coli BL21(DE3) (cyclin A-H6); GST-Cdk2 not described
Description: The binding of the αN peptide to the GST-Cdk2-cyclin A-H6 complex was studied in a similar manner to that described above for H6-Cdk5. Briefly, 3 μg of GST-Cdk2 and 10 μg of cyclin A-H6 were reconstituted in Buffer R with various concentrations of the αN peptide at 4° C. for 15 h. GST-Cdk2 was then precipitated by the addition of 20 μl of GSH-Sepharose beads. After washing, the co-precipitated cyclin A-H6 was detected by SDS-PAGE followed by Western blot using a monoclonal antibody against cyclin A (Santa Cruz).
To discriminate between these possibilities, we performed direct binding competition experiments. Various concentrations of the peptides were added to a H6-Cdk5.GST-Nck5a mixture, and GST-Nck5a was then precipitated using GSH-agarose beads. The amount of H6-Cdk5 in complex with GST-Nck5a was determined by Western blotting of the enzyme co-precipitated by GSH-agarose beads. The amount of H6-Cdk5 and cyclin A-H6 used in the experiment described in FIG. 4, A and B, were chosen to ensure that their respective antibodies would be in excess.

[2] = molecular target: T1, GST-Cdk2-cyclin A-H6 complex; experiment: Peptide inhibition of Cdk2 kinase activity (histone H1 peptide, [γ-32P]ATP); assay type: biochemical; conditions: for inhibition of Cdk2 kinase activity (in words): GST-Cdk2.cyclin A-H6, FIG. 3B
Description: The C-terminal histidine-tagged human cyclin A (cyclin A-H6) was expressed and purified in essentially the same manner as described for H6-Cdk5. Briefly, the expression plasmid pET21d containing a cyclin A gene lacking the N-terminal 173 amino acids was transformed into BL21(DE3) E. coli cells. The host cells were cultured in LB medium containing 100 μg/ml ampicillin, and cyclin A expression was induced by adding isopropyl-1-thio-β-D-galactopyranoside to a final concentration of 0.1 mM. The induction of cyclin A expression was for 3 h at 30° C. The pelleted cells were resuspended in 50 mM Tris-HCI, pH 7.5, 300 mM NaCl, and 0.05% Triton X-100, and then lysed in the French press. The subsequent purification of cyclin A using a Ni^2+-NTA column was carried out in a manner identical to that described for the purification of H6-Cdk5. The monomeric, active form of cyclin A-H6 was further purified by passing the cyclin A-H6-containing eluent through a Sephacryl S-200 gel filtration column (Amersham Pharmacia Biotech).
(§1) Peptide Inhibition of Cdk5 and Cdk2 Kinase Activity—Cdk5 kinase activity was assayed essentially as described previously, except that for each Cdk5 kinase reaction 1 μg of GST-Cdk5 was reconstituted with 2 μg of GST-Nck5a, and 1 μg of GST-Cdk2 was mixed with 3 μg of cyclin A-H6 in Cdk2 assays. The reconstituted complexes were added, in duplicate, to an assay mixture containing 30 mM MOPS, pH 7.4, 10 mM MgCl2, 40 μM of the histone H1 peptide, 50 μM [γ-^32P]ATP, and various concentrations of various peptides at 30° C. for 30 min before measuring the Cdk5 and Cdk2 kinase activities.

[3] = molecular target: T2, GST-Cdk5.GST-Nck5a complex (Homo sapiens, UniProt Q00535); experiment: Steady state kinetic analysis of Cdk5 inhibition (double reciprocal and Dixon plots); assay type: biochemical
T2 construct: made in house
Description: as §1
Steady State Kinetic Experiments—All assay conditions were the same as in the inhibition assay described above, except that the reaction time was kept at 15 min so that the product formed was less than 5% of the total substrate concentration used. To determine suitable concentrations of the substrate and the inhibitor for the steady state kinetic experiments, the Km value of GST-Cdk5.GST-Nck5a complex and a concentration-dependent inhibition profile of the enzyme by the αN peptide were determined. Four different concentrations of the histone H1 peptide (7.5, 10, 15, and 30 μM) were used in the kinetic analysis of the enzyme inhibition. For each substrate concentration, four concentrations of the αN peptide (0, 10, 20, and 30 μM) were used in the inhibition assay.

[4] = molecular target: T3, H6-Cdk5.GST-Nck5a complex (Homo sapiens, UniProt Q00535); experiment: Peptide/Cdk binding assay: GSH-bead co-precipitation and Western blot of Cdk5; conditions: various amounts of peptide (5, 20, 50 μM; 1000-fold excess)
T3 construct: made in house; host or cells: Escherichia coli M15 (H6-Cdk5)
Description: Peptide/Cdk Binding Assay—H6-Cdk5 (about 3 μg) and 15 μg of GST-p25 were premixed in 300 μl of 1×phosphate-buffered saline with 0.5 mg/ml bovine serum albumin. Some 50-μl quantities of the mixture was taken out to mix with various concentrations of the αN peptide (from serial dilutions made from a 2.0 mM stock solution), and the total volume of the mixture was adjusted to 150 μl using Buffer R (1×phosphate-buffered saline containing 1 mM EDTA, 1 mM dithiothreitol, 0.6 mM phenylmethylsulfonyl fluoride, 1 μg/ml leupeptin, 1 μg/ml leupeptin, 1 μg/ml antipain, 5 mg/ml bovine serum albumin). The reaction mixture was incubated at 4° C for 15 h. GST-Nck5a-H6-Cdk5 complex was then precipitated by the addition of 40 μl of GSH-Sepharose beads pre-equilibrated with 1×phosphate-buffered saline (50%, v/v). The GSH-Sepharose beads were washed three times with 1×phosphate-buffered saline buffer, and subsequently resuspended in 20 μl of water and 20 μl of 2×protein sample treatment buffer. The co-precipitated H6-Cdk5 was detected by SDS-PAGE followed by Western blot using a monoclonal antibody against Cdk5.
To discriminate between these possibilities, we performed direct binding competition experiments. […] The amount of H6-Cdk5 in complex with GST-Nck5a was determined by Western blotting of the enzyme co-precipitated by GSH-agarose beads. […]

[5] = molecular target: T2, GST-Cdk5.GST-Nck5a complex; experiment: Peptide inhibition of Cdk5 kinase activity (histone H1 peptide, [γ-32P]ATP); assay type: biochemical; conditions: for inhibition of Cdk5 kinase activity (in words): GST-Cdk5.GST-Nck5a, FIG. 2 and 3A
Description: as §1

[6] = listed as Nck5a-derived peptide

T2 sequence (Q00535 whole entry): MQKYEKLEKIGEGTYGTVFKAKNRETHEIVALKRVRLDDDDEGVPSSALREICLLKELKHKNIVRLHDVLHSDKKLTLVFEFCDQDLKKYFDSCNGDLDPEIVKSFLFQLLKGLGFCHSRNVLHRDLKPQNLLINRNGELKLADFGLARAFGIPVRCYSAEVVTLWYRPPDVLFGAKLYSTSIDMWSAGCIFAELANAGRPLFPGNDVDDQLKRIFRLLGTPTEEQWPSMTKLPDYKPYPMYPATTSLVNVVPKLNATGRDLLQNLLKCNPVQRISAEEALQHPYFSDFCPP
T2 sequence (Q15078 99-307 partner limits assumed): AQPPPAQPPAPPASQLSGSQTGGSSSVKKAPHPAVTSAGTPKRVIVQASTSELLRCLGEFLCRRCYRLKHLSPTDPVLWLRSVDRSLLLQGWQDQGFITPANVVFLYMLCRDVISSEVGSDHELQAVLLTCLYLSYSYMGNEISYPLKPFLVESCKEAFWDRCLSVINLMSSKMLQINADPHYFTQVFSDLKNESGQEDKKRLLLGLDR
T3 sequence (Q00535 whole entry): as the sequence (Q00535 whole entry) above
T3 sequence (Q15078 99-307 partner limits assumed): as the sequence (Q15078 99-307 partner limits assumed) above

| dissociation of cyclin A from Cdk2 on addition of peptide [1] | inhibition at 0.5 µM ([2]; 0.5 μM peptide) | inhibition at 2 µM ([2]; 2 μM peptide) | inhibition at 10 µM ([2]; 10 μM peptide) | inhibition of the kinase by an excess amount of peptide ([3]; 400 μM peptide, data not shown) | mode of inhibition with respect to the substrate (histone H1 peptide) ([3]; double-reciprocal plot) | inhibition at 5 µM ([5]; 5 μM peptide, heading: inhibition of Cdk5 activity) | inhibition at 20 µM ([5]; 20 μM peptide) | inhibition at 50 µM ([5]; 50 μM peptide) | inhibition of Cdk5 activity ([5]; 50 μM peptide) | effect of a large excess of GST-Nck5a on Cdk5 inhibition by the peptide ([5]; 50 μM peptide, 2, 20, 40 μg GST-p25 with 1 μg GST-Cdk5) | Cdk5 kinase activity inhibited ([5]; GST-αN concentration of 5 μM) | Molecule | dissociation of cyclin A from Cdk2 on addition of peptide [1, 6] | inhibition of Cdk2 kinase activity (in words) [2] | dissociation of Nck5a from Cdk5 on addition of peptide [4] | dissociation of Nck5a from Cdk5 on addition of peptide [4, 6] | inhibition of Cdk5 kinase activity (in words) [5] |
| --- | --- | --- | --- | --- | --- | --- | --- | --- | --- | --- | --- | --- | --- | --- | --- | --- | --- |
| formation of a ternary complex | 10% | 50% | 90% | near complete inhibition | noncompetitive inhibitor | 10% | 50% | 90% | about 90% | no significant effect | – | CC(C)C[C@H](NC(=O)[C@H](CS)NC(=O)[C@H](CCCNC(=N)N)NC(=O)[C@H](CC(C)C)NC(=O)[C@H](CC(C)C)NC(=O)[C@H](CCC(=O)O)NC(=O)[C@H](CO)NC(=O)[C@@H](NC(=O)[C@H](CO)NC(=O)[C@H](C)N)[C@@H](C)O)C(=O)NCC(=O)N[C@@H](CCC(=O)O)C(=O)N[C@@H](Cc1ccccc1)C(=O)N[C@@H](CC(C)C)C(=O)N[C@@H](CS)C(=O)N[C@@H](CCCNC(=N)N)C(=O)N[C@@H](CCCNC(=N)N)C(=O)N[C@@H](CS)C(=O)N[C@@H](Cc1ccc(O)cc1)C(=O)N[C@@H](CCCNC(=N)N)C(=O)N[C@@H](CC(C)C)C(=O)N[C@@H](CCCCN)C(=O)N[C@@H](Cc1c[nH]cn1)C(=O)N[C@@H](CC(C)C)C(=O)N[C@@H](CO)C(=O)N1CCC[C@H]1C(=O)N[C@H](C(=O)N[C@@H](CC(=O)O)C(=O)O)[C@@H](C)O [αN peptide] (H-ASTSELLRCLGEFLCRRCYRLKHLSPTD-OH; N-terminus and C-terminus assumed) | does not lead to the dissociation of Nck5a from Cdk5 or cyclin A from Cdk2 | even higher potency than in the case with Cdk5.Nck5a inhibition | did not lead to a dissociation of GST-Nck5a from H6-Cdk5 | does not lead to the dissociation of Nck5a from Cdk5 | – |
| – | – | – | – | – | – | – | – | – | – | – | – | DYHDIHTYLREMEVKPKPKVGYMKKQPDIT (DYHEDIHTYLREMEVKCKPKVGYMKKQPDIT; listed as Homo sapiens) [cyclin A peptide, 31-residue peptide corresponding to Asp177 to Thr207 of human cyclin A, the N-terminal alpha-helix, reference compound] | – | inhibited neither GST-Cdk5.GST-Nck5a nor GST-Cdk2.cyclin A-H6 | – | – | inhibited neither GST-Cdk5.GST-Nck5a nor GST-Cdk2.cyclin A-H6 |
| – | – | – | – | – | – | – | – | – | – | – | About 50% | GST-αN: GST fusion mutant containing a 29-residue peptide fragment corresponding to residues Gln145 to Asp173 of Nck5a (QASTSELLRCLGEFLCRRCYRLKHLSPTD; cysteine pairing not given here; also: fused to GST) | – | also inhibited the kinase activity of Cdk2 | – | – | inhibit Cdk5 kinase activity in a dose-dependent manner |
